The values that follow come from patent US5071955A, “Octopeptide exhibiting antimypertensive activity” (Nippon Suisan Kaisha, Ltd., priority 1988, dated 1991).

The structures appear in SMILES notation. Peptide text beside a SMILES is read from it.

As usually defined, the IC50 is the midpoint of a concentration-inhibition curve. Low readings indicate higher potency, high ones lower potency.

The target of series [1] is Angiotensin I converting enzyme (ACE) (Homo sapiens, UniProt P12821). Kind of series: Angiotensin I converting enzyme (ACE) inhibitory activity, method of Cushman and Cheung. In kind it is biochemical. The note with it: Hip-His-Leu substrate, pH 8.3, 37° C., 30 min. The method, then:
A prescribed amount of sample was added to a solution composed of 1-10 mU ACE, 2.5 mM Hip-His-Leu substrate (produced by Peptide Research Institute), 100 mM potassium-phosphate buffer (pH 8.3), and 300 mM NaCl. 0.25 ml of this mixture was incubated at 37° C. for 30 min, and the enzymatic reaction was stopped by adding 0.25 ml of 1N HCl. 1.5 ml of ethylacetate was then added and the mixture was vigorously shaken for 10 second, following which the hippuric acid produced was extracted. […] A blank (ODsbl) was made by adding 1N HCl prior to incubation, and the difference in absorbance, ODs-ODsbl, was determined. […] ACE inhibitory activity was calculated using the following equation: [formula]

Series [2] relates to ICR mice. The series can be described thus: Intravenous LD50 in ICR mice. Type of series: in vivo. The settings on record: in physiological saline, 6 week old male and female ICR mice, 2 week observation. The method, then:
(§1) The peptide of formula (I) prepared in Example 2 was dissolved in physiological saline.
(§2) Various concentrations of the peptide in physiological saline were intravenously administered to test animal groups each consisting of 6 week old male (10/group) or female (10/group) ICR mice, or 6 week old male (10/group) or female (10/group) Wistar rats. The LD50 value was determined after a 2 week observation period.

For series [3], the system named is Wistar rats. Kind of series: Intravenous LD50 in Wistar rats. Type of series: in vivo. The settings on record: in physiological saline, 6 week old male and female Wistar rats, 2 week observation. The method, then: as §1, §2

Sequence of Angiotensin I converting enzyme (ACE) (P12821 30-1306, species assumed): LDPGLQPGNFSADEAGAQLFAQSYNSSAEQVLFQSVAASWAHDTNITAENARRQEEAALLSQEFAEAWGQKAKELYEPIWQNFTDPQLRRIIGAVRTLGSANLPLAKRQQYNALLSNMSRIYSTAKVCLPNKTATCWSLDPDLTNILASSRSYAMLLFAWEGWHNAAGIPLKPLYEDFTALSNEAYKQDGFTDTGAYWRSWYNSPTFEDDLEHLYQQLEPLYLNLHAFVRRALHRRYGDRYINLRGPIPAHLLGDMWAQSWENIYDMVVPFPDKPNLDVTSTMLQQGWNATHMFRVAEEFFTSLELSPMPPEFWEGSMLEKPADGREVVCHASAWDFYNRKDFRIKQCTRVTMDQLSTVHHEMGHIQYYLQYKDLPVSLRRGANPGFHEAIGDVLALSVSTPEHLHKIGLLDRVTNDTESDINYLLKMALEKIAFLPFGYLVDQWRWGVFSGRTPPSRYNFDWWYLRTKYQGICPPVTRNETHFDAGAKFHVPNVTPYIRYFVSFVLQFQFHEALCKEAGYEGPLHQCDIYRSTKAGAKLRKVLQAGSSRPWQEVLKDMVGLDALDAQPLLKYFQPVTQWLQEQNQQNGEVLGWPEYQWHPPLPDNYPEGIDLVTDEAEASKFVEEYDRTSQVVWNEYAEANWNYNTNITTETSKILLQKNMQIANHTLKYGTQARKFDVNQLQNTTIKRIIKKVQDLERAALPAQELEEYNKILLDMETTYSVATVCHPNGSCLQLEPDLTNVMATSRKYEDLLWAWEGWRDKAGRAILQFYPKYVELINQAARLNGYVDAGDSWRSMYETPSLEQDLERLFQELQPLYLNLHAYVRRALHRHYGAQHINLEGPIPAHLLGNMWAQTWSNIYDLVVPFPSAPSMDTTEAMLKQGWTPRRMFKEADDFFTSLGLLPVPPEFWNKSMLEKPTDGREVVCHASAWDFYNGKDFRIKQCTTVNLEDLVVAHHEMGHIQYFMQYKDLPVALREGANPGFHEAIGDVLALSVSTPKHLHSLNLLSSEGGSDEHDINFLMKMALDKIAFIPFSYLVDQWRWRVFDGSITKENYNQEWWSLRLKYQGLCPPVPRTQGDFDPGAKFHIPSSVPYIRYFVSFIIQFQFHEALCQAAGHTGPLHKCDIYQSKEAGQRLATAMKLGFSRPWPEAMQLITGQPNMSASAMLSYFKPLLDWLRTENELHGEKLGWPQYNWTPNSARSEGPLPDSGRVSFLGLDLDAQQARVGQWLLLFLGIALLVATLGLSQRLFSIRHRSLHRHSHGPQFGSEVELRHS

For the compound `CC[C@H](C)[C@H](NC(=O)[C@H](Cc1c[nH]cn1)NC(=O)[C@@H](NC(=O)[C@@H]1CCCN1)[C@@H](C)O)C(=O)N[C@@H](CCCCN)C(=O)N[C@@H](Cc1c[nH]c2ccccc12)C(=O)NCC(=O)N[C@@H](CC(=O)O)C(=O)O` [Peptide (I), Pro-Thr-His-Ile-Lys-Trp-Gly-Asp] (H-PTHIKWGD-OH), the IC50 in series [1] (sample origin: Fish) was 700 nM; in series [1] (sample origin: Peptide Synthesis) it was 600 nM. In addition, the LD50 result in series [2] and in series [3] was “greater than 10 mg/kg” throughout.
Take `CC(C)C[C@H](NC(=O)[C@@H](NC(=O)[C@@H](N)CC(C)C)C(C)C)C(=O)O` [Tripeptide, Leu-Val-Leu, reference compound] (H-Leu-Val-Leu-OH): the concentration for half-maximal inhibition (IC50) in series [1] (comparison samples of Table 1) is 1700 nM.
